From ChEMBL document CHEMBL4251653, “In vivo potent BM635 analogue with improved drug-like properties” (Eur J Med Chem, 2018)
In brackets after ≈: the same amount, converted by molar mass.

What was measured:
[1] = system: Mycobacterium tuberculosis; test: microbe, parasite or virus in culture; conditions: 144 h
Description: Antitubercular activity against Mycobacterium tuberculosis after 6 days by resazurin-based fluorescence assay

[2] = Cytotoxicity against human HepG2 cells incubated for 48 hrs by Cell-titer Glo assay; type: cell-based; conditions: read-out: TC50
in vitro = conditions: human, HepG2 cells
Description: Selectivity index, ratio of TC50 for human HepG2 cells to MIC for Mycobacterium tuberculosis

[3] = system: Mycobacterium tuberculosis; test: microbe, parasite or virus in culture; conditions: H37Rv, THP-1, 96 h
Description: Antitubercular activity against Mycobacterium tuberculosis H37Rv infected in human THP1 macrophages incubated for 4 days by luciferase reporter gene assay

[4] = biological target: Voltage-gated inwardly rectifying potassium channel KCNH2 (Homo sapiens, UniProt Q12809); test: Inhibition of human ERG by [3H]dofetilide binding displacement assay
Chain of Voltage-gated inwardly rectifying potassium channel KCNH2 (Q12809 whole entry): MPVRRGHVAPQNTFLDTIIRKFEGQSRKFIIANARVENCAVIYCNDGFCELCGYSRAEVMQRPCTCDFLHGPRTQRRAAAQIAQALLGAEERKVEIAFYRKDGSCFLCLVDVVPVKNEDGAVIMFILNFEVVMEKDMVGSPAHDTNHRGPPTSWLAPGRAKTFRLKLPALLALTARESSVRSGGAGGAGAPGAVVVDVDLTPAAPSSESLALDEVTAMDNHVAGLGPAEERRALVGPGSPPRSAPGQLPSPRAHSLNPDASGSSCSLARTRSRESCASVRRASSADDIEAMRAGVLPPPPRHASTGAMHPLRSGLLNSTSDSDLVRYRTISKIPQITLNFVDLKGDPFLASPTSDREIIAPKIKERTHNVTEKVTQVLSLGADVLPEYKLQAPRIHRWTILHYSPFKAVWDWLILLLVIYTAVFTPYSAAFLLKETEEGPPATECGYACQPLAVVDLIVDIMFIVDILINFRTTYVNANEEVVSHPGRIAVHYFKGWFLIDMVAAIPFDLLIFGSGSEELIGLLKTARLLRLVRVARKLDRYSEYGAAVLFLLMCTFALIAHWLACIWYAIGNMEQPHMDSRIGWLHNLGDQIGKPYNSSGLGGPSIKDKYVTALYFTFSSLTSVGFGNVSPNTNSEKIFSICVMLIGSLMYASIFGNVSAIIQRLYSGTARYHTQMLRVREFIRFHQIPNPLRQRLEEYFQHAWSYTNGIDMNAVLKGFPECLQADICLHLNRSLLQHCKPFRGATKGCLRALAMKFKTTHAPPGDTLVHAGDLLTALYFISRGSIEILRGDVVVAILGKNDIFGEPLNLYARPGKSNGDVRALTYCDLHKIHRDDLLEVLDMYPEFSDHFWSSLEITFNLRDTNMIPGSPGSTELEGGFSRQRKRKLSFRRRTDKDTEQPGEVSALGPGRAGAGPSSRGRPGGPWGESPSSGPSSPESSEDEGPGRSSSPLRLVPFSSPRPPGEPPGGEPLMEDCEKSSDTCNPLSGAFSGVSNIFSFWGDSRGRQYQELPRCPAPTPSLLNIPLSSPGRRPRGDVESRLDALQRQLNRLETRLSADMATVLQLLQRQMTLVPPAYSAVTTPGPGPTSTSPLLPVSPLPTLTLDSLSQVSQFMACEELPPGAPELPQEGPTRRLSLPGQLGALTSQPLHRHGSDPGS

[5] = Kinetic solubility in pH 7.4 phosphate buffered saline incubated for 1 hr by chemiluminescent nitrogen detection method; type: physicochemical; conditions: read-out: Kinetic_solubility
[6] = Lipophilicity, log D of the compound at pH 7.4 by UV-HPLC method; type: physicochemical; conditions: buffer, read-out: logD
[7] = Permeability of the compound by artificial membrane permeability assay; type: ADME; conditions: PAMPA; read-out: permeability
Albumin = Albumin (Homo sapiens, UniProt P02768); test: Binding affinity to human serum albumin; type: ADME; conditions: isolated protein
Chain of Albumin (P02768 whole entry): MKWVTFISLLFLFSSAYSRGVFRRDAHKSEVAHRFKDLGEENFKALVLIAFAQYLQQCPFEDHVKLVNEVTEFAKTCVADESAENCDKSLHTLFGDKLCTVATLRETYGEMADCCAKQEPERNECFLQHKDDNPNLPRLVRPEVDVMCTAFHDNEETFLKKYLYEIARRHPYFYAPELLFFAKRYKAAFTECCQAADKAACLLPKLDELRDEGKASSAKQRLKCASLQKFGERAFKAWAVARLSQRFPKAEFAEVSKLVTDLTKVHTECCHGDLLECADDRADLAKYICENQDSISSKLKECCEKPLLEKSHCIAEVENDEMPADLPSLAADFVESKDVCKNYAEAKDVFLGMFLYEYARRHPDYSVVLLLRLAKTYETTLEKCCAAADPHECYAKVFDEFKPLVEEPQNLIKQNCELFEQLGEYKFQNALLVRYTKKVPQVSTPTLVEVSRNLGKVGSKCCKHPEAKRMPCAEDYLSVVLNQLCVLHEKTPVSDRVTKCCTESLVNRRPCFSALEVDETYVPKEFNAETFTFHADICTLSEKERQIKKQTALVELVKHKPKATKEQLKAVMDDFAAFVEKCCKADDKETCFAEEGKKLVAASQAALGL

HepG2 [8] = test: Cytotoxicity against human HepG2 cells assessed as compound concentration causing changes in membrane permeability by Cell Health assay; type: cell-based
HepG2 [9] = test: Cytotoxicity against human HepG2 cells assessed as compound concentration causing changes in mitochondrial potential by Cell Health assay; type: cell-based
HepG2 [10] = test: Cytotoxicity against human HepG2 cells assessed as compound concentration causing changes in nuclear morphology by Cell Health assay; type: cell-based

Row | Structure (SMILES) | MIC [1] [µM] | CC50 at 48 h [2] [µM] | IC50 [3] [nM] | other results
1 | COc1ccc(-c2cc(CN3CCOCC3)c(C)n2C(C)C)cc1 | 2.5 (≈ 0.821 µg/mL) | – | – | –
2 | Cc1c(CN2CCOCC2)cc(-c2ccc(C(C)C)cc2)n1C1CCCC(O)C1 (configuration not stated) | > 40 | 20 | – | –
3 | Cc1c(CN2CCOCC2)cc(-c2ccc(C(C)C)cc2)n1Cc1ccc(F)cc1 | 0.08 (≈ 0.0325 µg/mL) | 20 | 160 | selectivity ratio (in vitro): 250; IC50 [4]: 5 µM; solubility kinetic at 1 h [5]: 11 µM (≈ 4.47 µg/mL); logD [6]: 8.2; Papp [7]: 30 ×10⁻⁶ cm/s; Activity (Albumin): 98.47%
4 | Cc1c(CN2CCOCC2)cc(-c2ccc(C(F)(F)F)cc2)n1C1CCC1 | 1.25 (≈ 0.473 µg/mL) | 20 | – | selectivity ratio (in vitro): 67
5 | Cc1[nH]c(-c2ccc(C(C)C)cc2)cc1CN1CCOCC1 | 12.5 (≈ 3.73 µg/mL) | 1.6 | > 10000 | –
6 | Cc1c(CN2CCOCC2)cc(-c2ccc(C(C)C)cc2)n1CC(C)(C)O | 2.5 (≈ 0.926 µg/mL) | 40 | 2500 | Activity (HepG2 [8]): 100 µM; Activity (HepG2 [9]): 126 µM; Activity (HepG2 [10]): 50 µM
7 | COCCCn1c(-c2ccc(C(C)C)cc2)cc(CN2CCOCC2)c1C | 1.3 (≈ 0.482 µg/mL) | – | 1250 | Activity (HepG2 [8]): 40 µM; Activity (HepG2 [9]): 50 µM; Activity (HepG2 [10]): 32 µM
8 | CC(=O)Nc1ccc(-c2cc(CN3CCOCC3)c(C)n2-c2ccc(F)cc2)cc1 | 1.25 (≈ 0.509 µg/mL) | 80 | 3300 | selectivity ratio (in vitro): 40
9 | Cc1c(CN2CCOCC2)cc(-c2ccc(C(C)C)cc2)n1CC(C)C | 0.2 (≈ 0.0709 µg/mL) | 20 | 80 | selectivity ratio (in vitro): 100; IC50 [4]: 16 µM; solubility kinetic at 1 h [5]: 47 µM (≈ 16.7 µg/mL); logD [6]: 8.46; Papp [7]: 43 ×10⁻⁶ cm/s; Activity (Albumin): 97.12%
10 | Cc1c(CN2CCOCC2)cc(-c2ccc(C(C)C)cc2)n1CCCC(=O)O | > 40 | > 100 | – | –
11 | Cc1c(CN2CCOCC2)cc(-c2ccc(C(C)C)cc2)n1-c1ccc(C(=O)O)cc1 | > 40 | > 100 | – | –
12 | Cc1c(CN2CCOCC2)cc(Cc2ccccc2)n1-c1ccc(F)cc1 | > 5 | 10 | – | –
13 | Cc1cc(CN2CCOCC2)c(C)n1-c1ccc(F)cc1 | > 5 | > 100 | > 10000 | –
14 | Cc1c(CN2CCOCC2)cc(-c2ccc(C(C)C)cc2)n1[C@@H]1CCCNC1 | > 80 | 16 | – | –
15 | Cc1c(CN2CCOCC2)cc(-c2ccc(C(C)C)cc2)n1CC1CCCO1 (configuration not stated) | 5 (≈ 1.91 µg/mL) | 32 | 5000 | Activity (HepG2 [8]): 50 µM; Activity (HepG2 [9]): 63 µM; Activity (HepG2 [10]): 40 µM
16 | Cc1c(CN2CCOCC2)cc(-c2ccc(C(C)C)cc2)n1C | 1.25 (≈ 0.391 µg/mL) | 16 | 1250 | Activity (HepG2 [8]): 40 µM; selectivity ratio (in vitro): 13; Activity (HepG2 [9]): 50 µM; Activity (HepG2 [10]): 40 µM
17 | Cc1c(CN2CCOCC2)cc(-c2ccc(C(C)C)cc2)n1C1CCOCC1 | 2.5 (≈ 0.956 µg/mL) | 50.1 | – | –
18 | Cc1cc(Cl)ccc1-c1cc(CN2CCOCC2)c(C)n1-c1ccc(F)cc1 | 5 (≈ 1.99 µg/mL) | > 100 | > 10000 | Activity (HepG2 [8]): > 200 µM; Activity (HepG2 [9]): > 200 µM; Activity (HepG2 [10]): > 200 µM
19 | Cc1c(CN2CCOCC2)cc(-c2ccc(Cl)cn2)n1-c1ccc(F)cc1 | > 125 | > 100 | > 10000 | Activity (HepG2 [8]): > 200 µM; Activity (HepG2 [9]): > 200 µM; Activity (HepG2 [10]): > 200 µM
20 | Cc1c(CN2CCOCC2)cc(-c2ccc(Cl)cc2)n1C(C)C | 2.5 (≈ 0.832 µg/mL) | – | – | –

Row | Structure (SMILES) | MIC [1] [µM] | CC50 at 48 h [2] [µM] | IC50 [3] [nM] | other results
21 | Cc1c(CN2CCOCC2)cc(-c2ccc(C(C)C)cc2)n1C1CCN(C)CC1 | > 5 | 20 | > 10000 | –
22 | Cc1c(CN2CCOCC2)cc(-c2ccc(C(F)(F)F)cc2)n1C1CCCCC1 | 1.25 (≈ 0.508 µg/mL) | > 100 | – | selectivity ratio (in vitro): > 167
23 | COCCn1c(-c2ccc(C(C)C)cc2)cc(CN2CCOCC2)c1C | 1.3 (≈ 0.463 µg/mL) | 50.1 | 1320 | selectivity ratio (in vitro): 39
24 | Cc1c(CN2CCOCC2)cc(-c2ccc(Cl)nc2)n1-c1ccc(F)cc1 | > 5 | 80 | > 10000 | –
25 | Cc1c(CN2CCOCC2)cc(-c2ccc(C(C)C)cc2)n1-c1cccc(C(=O)O)c1 | 40 (≈ 16.7 µg/mL) | > 100 | – | –
26 | Cc1c(CN2CCOCC2)cc(-c2ccc(C(C)C)cc2)n1C1COC1 | 2.5 (≈ 0.886 µg/mL) | 80 | 2500 | Activity (HepG2 [8]): 80 µM; Activity (HepG2 [9]): 100 µM; Activity (HepG2 [10]): 80 µM
27 | Cc1c(CN2CCOCC2)cc(-c2ccc(C(C)C)cc2)n1-c1ccc(F)cn1 | 0.6 (≈ 0.236 µg/mL) | 20 | 600 | Activity (HepG2 [8]): 63 µM; selectivity ratio (in vitro): 33; IC50 [4]: 8 µM; Activity (HepG2 [9]): 80 µM; solubility kinetic at 1 h [5]: 276 µM (≈ 109 µg/mL); logD [6]: 6.85; Activity (HepG2 [10]): 50 µM; Papp [7]: 64 ×10⁻⁶ cm/s; Activity (Albumin): 94.13%
28 | Cc1c(CN2CCOCC2)cc(-c2ccc(C(C)C)cc2)n1-c1ncccn1 | 40 (≈ 15.1 µg/mL) | > 100 | – | –
29 | Cc1c(CN2CCOCC2)cc(-c2ccc(C(C)C)cc2)n1CCC(=O)O | > 40 | > 100 | – | –
30 | Cc1c(CN2CCOCC2)cc(-c2ccc(C(C)C)cc2)n1C1CCC1 | 0.08 (≈ 0.0282 µg/mL) | 20 | 80 | Activity (HepG2 [8]): 25 µM; selectivity ratio (in vitro): 250; IC50 [4]: 8 µM; Activity (HepG2 [9]): 32 µM; solubility kinetic at 1 h [5]: 71 µM (≈ 25 µg/mL); logD [6]: 8.13; Activity (HepG2 [10]): 25 µM; Papp [7]: 55 ×10⁻⁶ cm/s; Activity (Albumin): 98.12%
31 | Cc1c(CN2CCOCC2)cc(-c2ccc(C(C)C)cc2)n1-c1ccc(N(C)C)cc1 | 1.25 (≈ 0.522 µg/mL) | 16 | 2500 | selectivity ratio (in vitro): 13
32 | Cc1c(CN2CCOCC2)cc(-c2ccc(C(C)C)cc2)n1[C@@H]1CCCN(C)C1 | > 40 | 25 | – | –
33 | Cc1c(CN2CCOCC2)cc(-c2ccc(C(C)C)cc2)n1CC1CCOCC1 | > 5 | > 100 | 5280 | –
34 | Cc1c(CN2CCOCC2)cc(-c2ccc(C(F)(F)F)cc2)n1-c1ccc(F)cc1 | 0.6 (≈ 0.251 µg/mL) | > 100 | – | selectivity ratio (in vitro): 167; IC50 [4]: > 50 µM; solubility kinetic at 1 h [5]: < 1 µM; logD [6]: 7.67; Papp [7]: 15 ×10⁻⁶ cm/s; Activity (Albumin): 98.33%
35 | Cc1c(CN2CCOCC2)cc(C2CCCCC2)n1-c1ccc(F)cc1 | > 5 | 50 | > 10000 | –
36 | Cc1c(CN2CCOCC2)cc(-c2ccc(C(F)(F)F)cc2)n1C(C)C | 2.5 (≈ 0.916 µg/mL) | 20 | – | –
37 | Cc1c(CN2CCOCC2)cc(-c2ccc(C(C)C)cc2)n1C1CCN(C(=O)OC(C)(C)C)CC1 | > 5 | – | > 10000 | –
38 | Cc1c(CN2CCOCC2)cc(-c2ccc(C(C)C)cc2)n1C1CCCN(C(=O)OC(C)(C)C)C1 (single isomer, unassigned) | 30 (≈ 14.5 µg/mL) | 16 | – | –
39 | NNC(=O)c1ccncc1 [ISONIAZID] | 1.8 (≈ 0.247 µg/mL) | – | – | –
